Reference: patent US20190167771A1, “CONTROL ANGIOGENESIS BY REGULATING PHOSPHORYLATION OF SERYL-tRNA SYNTHETASE (SerRS)” (The Scripps Research Institute, priority 2016, published 2019)

Key:
SerRS phosphorylation = test: Hypoxia-induced phosphorylation of endogenous SerRS in HEK293 cells with ATM/ATR inhibitors (IP/IB); type: cell-based, human; conditions: HEK293 pretreated with inhibitor for one hour, hypoxia 12 hours
Method: In FIG. 7C, HEK293 cells were pretreated with specific ATM inhibitor KU-55933 and ATR inhibitor VE-821 for one hour and then cultured under hypoxia condition for 12 hours. Cell lysates were subjected to IP with anti-SerRS antibody followed by immunoblot (IB) with anti-P-SQ antibody for detecting phosphorylated SerRS (P-SerRS). Phosphorylation of known ATM/ATR substrates (Chk1 and Chk2) was also immunoblotted.
Cells were resuspended with lysis buffer (20 mM Tris-HCl (pH 7.5), 150 mM NaCl, 1 mM of EDTA, 1 mM EGTA, 1% Triton X-100, 2.5 mM sodium pyrophosphate, 1 mM beta-glycerophosphate, 1 mM Na3VO4, and protease inhibitor cocktail) on ice. Supernatants were incubated with indicated antibodies and protein-G-conjugated agarose beads (ThermoFisher Scientific) for at least 2 h. The beads were washed five times with wash buffer (same as the lysis buffer, except that Triton X-100 was reduced from 1% to 0.1%) and then subjected to SDS-PAGE and immunoblotting analysis with indicated antibodies.

VEGFA [1] = test: VEGFA mRNA induction by 12-hour hypoxia in HEK293 cells (qRT-PCR); type: cell-based, human; conditions: inhibitor 5 μM pretreatment, hypoxia 12 hours
Method: In FIG. 3B, HEK293 cells were transiently transfected with SerRS^WT or SerRS^S101A/S241A constructs or empty control vector. 24 hours post-transfection, VEGFA mRNA induction by 12-hour-hypoxia treatment was monitored by qRT-PCR (means±SEM from four independent experiments; *P<0.05, **P<0.01, ***P<0.005). In FIG. 3C, HEK293 cells were transiently transfected with indicated constructs. 36 hours post-transfection, VEGFA mRNA induction by 12-hour-hypoxia treatment was monitored by qRT-PCR (means±SEM from four independent experiments; *P<0.0, **P<0.001, ***P<0.0001). The protein levels of SerRS, HIF-1α, and β-actin were examined by western blot (bottom).
Transient transfections were performed using Lipofectamine 2000 (ThermoFisher Scientific).
One gram of the total RNA from each sample was reversely transcribed to cDNA by M-MLV reverse transcriptase (Promega, Madison, Wis., USA). All real-time PCR reactions were performed using the StepOnePlus Real-Time PCR system (ThermoFisher Scientific) with SYBR Select Master Mix ThermoFisher Scientific). […] The PCR reaction program started at 95° C. for 10 min, followed by 45 cycles of 95° C. for 20 seconds and 60° C. for 1 min. Each experiment was carried out in triplicate. The VEGFA gene expression was normalized to that of β-ACTIN. Statistical analyses were performed with the software SigmaPlot (version 10.0). Student's t-test was used to analyze the changes between different groups.

Vegfa [2] = test: Vegfa mRNA by qRT-PCR in zebrafish embryos with SerRS knockdown and mRNA co-injection; type: in vivo; conditions: morpholino injected into 1-cell stage embryos, 3 dpf
Method: (§1) In FIG. 2A, wild type SerRS (SerRS^WT), its mutants with double substitutions of serine 101 and 241 with alanine or aspartic acid residues (SerRS^S101A/S241A and SerRS^S101D/S241D), or empty vector were transfected into HEK293 cells. The expression levels of SerRS proteins was measured by immunoblot (bottom) and VEGFA expression was determined by qRT-PCR (means±SEM from three independent experiments; ***P<0.0001). In FIGS. 2B-D, the roles of SerRS^S101A/S241A and SerRS^S101D/S241D in regulating vascular development in vivo in zebrafish were examined by co-injection of SerRS^S101A/S241A and SerRS^S101D/S241D mRNAs into one-cell-stage embryos whose endogenous SerRS was knocked down by injection of antisense morpholino (SerRS-MO) that led to abnormal high expression of Vegfa and hypervascularization (shown by short bold arrows in FIG. 2C). At 3 day post fertilization (dpf), embryos were harvested and Vegfa expression levels were measured by qRT-PCR (means±SEM, n=125-211; *P<0.01, **P<0.001) (B). The development of intersegmental vessel (ISV) at 3 dpf was examined (C) and the statistics of ISV abnormal branching rescued by SerRS^WT or mutant SerRS mRNA injections was analyzed (D; χ^2-test,* P>0.05 vs SerRS^WT, **P>0.1 vs SerRS-MO, ***P<1×10^−28 vs control-MO). In FIG. 2E, the binding affinities of SerRS^WT or SerRS^S101D/S241D with ^32P labeled DNA fragments corresponding to SerRS binding site on human VEGFA promoter were examined by EMSA. In FIG. 2F, the binding of SerRS^WT, SerRS^S101A/S241A, or SerRS^S101D/S241D on VEGFA promoter in HEK293 cells was examined by chromatin immunoprecipitation (ChIP) and qPCR (means±SEM from two independent experiments; ***P<0.0001). In FIG. 2G, the binding of endogenous SerRS on VEGFA promoter during hypoxia course was monitored by ChIP (means±SEM from three independent experiments; *P<0.05, **P<0.005 vs normal).
Total RNA was isolated from cells and zebrafish embryos by TRIzol Reagent (ThermoFisher Scientific). […] of the total RNA from each sample was reversely transcribed to cDNA by M-MLV reverse transcriptase (Promega, Madison, Wis., USA). All real-time PCR reactions were performed using the StepOnePlus Real-Time PCR system (ThermoFisher Scientific) with SYBR Select Master Mix ThermoFisher Scientific). […]

zebrafish embryos = test: Intersegmental vessel (ISV) branching in zebrafish embryos; type: in vivo; conditions: SerRS-MO alone, 3 dpf
Method: as §1
Transgenic Tg (Fli1a: EGFP) fish were maintained as we described before (Ref). The fish embryos were kept at 28.5° C. before and after microinjection. The antisense morpholino (MOs) targeting SerRS was injected into the yolk of 1-cell stage embryos at the dosage of 4˜5 ng per embryo. The sequence of SerRS-MO is (Ref). The SerRS-MO (5′ AGGAGAATGTGAACAAACCTGACAC 3′ (SEQ ID NO: 34)) and standard control MO (5′ CCTCTTACCTCAGTTACAATTTATA 3′ (SEQ ID NO: 35)) were purchased from Gene Tools, LLC (Philomath, Oreg. USA). After injection, embryos were incubated in E3 embryo medium supplemented with 0.003% 1-phenyl-2-thiourea (PTU) at 28.5° C. to prevent pigment formation. […] The rescue effects of different SerRS mutants on ISV development were analyzed with χ^2 test. […]

ATM/ATR kinases = test: In vitro phosphorylation of recombinant SerRS by DNA-activated HEK293 nuclear extract (p-SQ immunoblot, 32P-labelling); type: biochemical, human; conditions: recombinant his6-tagged protein, p-SQ antibody and 32P-labelling
Method: FIGS. 1A-G show SerRS is important for hypoxia induced VEGFA expression and is phosphorylated by ATM and ATR kinases under hypoxia at serine 101 and serine 241 residues. In FIG. 1A, HEK293 cells were transfected with shRNAs targeting SerRS (sh-SerRS) or GlyRS (sh-GlyRS), or nonspecific control shRNA (sh-Control). 48 hours post-transfection, cells were cultured under hypoxia or normoxia conditions for 12 hours. Immunoblot of cell lysates with anti-SerRS, anti-GlyRS and anti-β-actin antibodies (left). VEGFA expression levels were measured by qRT-PCR (right) and relative induction of VEGFA transcription under hypoxia were plotted (right, inset) (means±SEM. from four independent experiments; *P<0.01, **P<0.0001). […] The conserved ATM/ATR substrate motif residues are underlined. In FIG. 1C, recombinant his6-tagged human SerRS or GlyRS were incubated with γ-^32P-ATP and HEK293 cell nuclear extracts which are treated with or without double-stranded DNA oligoes mimicking DNA damage stimuli to activate ATM/ATR/DNA-PK kinases. Recombinant proteins were then purified by Ni-NTA beads and subjected to SDS-PAGE and autoradiography. In FIG. 1D, recombinant his6-tagged two human aminoacyl tRNA synthetases (AARS): TyrRS and GlyRS, wild type SerRS, or SerRS mutants with single or double substitutions of serine 101 and serine 241 with alanine (S101A, S241A, and S101A/S241A) were treated as described in FIG. 1C and phosphorylated recombinant proteins were immunoblotted with antibodies as indicated after purification by Ni-NTA beads. In FIG. 1E, HEK293 cells were cultured under hypoxia for 3, 6, and 12 hours. Phosphorylated SerRS was immunoblotted with specific anti-p-SQ antibody after SerRS proteins were immunoprecipitated (IP). Cell lysates were immunoblotted with indicated antibodies for known ATM and ATR substrates (Chk1 and P53). In FIG. 1F, Flag-tagged wild type and mutant SerRS constructs were transfected into HEK293 cells. 24 hours post-transfection, cells were treated with hypoxia stress for 12 hours and ectopically expressed SerRS was then purified by immunoprecipitation (IP) using anti-Flag antibody and immunoblot (IB) with anti-P-SQ antibody and anti-Flag antibody. In FIG. 1G, HEK293 cells were transfected with siRNA against ATM (si-ATM) or ATR (si-ATR) and treated with hypoxia stress for 12 hours. Phosphorylated SerRS were immunoblotted as described in FIG. 1E. […]
For protein purification, human SerRS and its mutant genes were subeloned into pET-20b(+) plasmid (Novagen, Darmstadt, Germany) and overexpressed in E. coli. […] The purities of the recombinant proteins were assessed by Coomassie blue staining following 4-12% Mini Gel (ThermoFisher Scientific) electrophoresis. Protein concentrations were determined using Bradford protein assay (BioRad, Hercules, Calif., USA). […]

Compound	SerRS phosphorylation under hypoxia (SerRS phosphorylation)	VEGFA induction under hypoxia (VEGFA [1])	level of phosphorylation in vitro (ATM/ATR kinases)	further results
O=c1cc(-c2cccc3c2Sc2ccccc2S3)oc(N2CCOCC2)c1 [KU-55933, reference compound]	blocked	less but still statistically significant		
CS(=O)(=O)c1ccc(-c2cnc(N)c(C(=O)Nc3ccccc3)n2)cc1 [VE-821, reference compound]	blocked	dramatically inhibited VEGFA induction		
SerRS-MO: antisense morpholino targeting zebrafish SerRS, SEQ ID NO: 34 (antisense AGGAGAATGTGAACAAACCTGACAC; all phosphorodiamidate morpholino (PMO)) [reference compound]				increase in the mRNA level of Vegfa (Vegfa [2]): 4 fold; zebrafish embryos with abnormal hyper-ISV branching phenotype (zebrafish embryos): 69.7%
SerRS^S101A: human SerRS mutant, serine 101 substituted with alanine, SEQ ID NO: 2			decreased level of phosphorylation	
SerRS^S241A: human SerRS mutant, serine 241 substituted with alanine, SEQ ID NO: 3			almost had no phosphorylation	
